Experimental data: the supplement of paper PMC5412046

Columns and labels:
[1] = system: SB.msgc-1; experiment: area under the dose-response curve of % viability (trapezoidal, 11 doses) (% viability x log10 concentration); higher = less cytotoxic; conditions: SB.msgc-1 (sporadic gastric cancer)
In short: (§1)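 Viability, normalised to DMSO, is listed either at the highest concentration or as trapezoidal area under the curve. It was measured in patient-derived gastric cancer cells, hereditary or sporadic, exposed for 48 h to 11 threefold-diluted compound concentrations and then assayed with CellTiter-Glo luminescence.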

[2] = system: SB.mhdgc-1; experiment: as above; conditions: SB.mhdgc-1 (hereditary c.1380delA CDH1 gastric cancer)
In short: as §1

[3] = system: SB.msgc-1; experiment: viability at highest tested concentration (MAXR) relative to DMSO; higher = less cytotoxic; conditions: SB.msgc-1 (sporadic gastric cancer)
In short: as §1

[4] = system: SB.mhdgc-1; experiment: as above; conditions: SB.mhdgc-1 (hereditary c.1380delA CDH1 gastric cancer)
In short: as §1

With `CC(C)(O)c1cc2nc(-c3cnc(N)nc3)nc(N3CCOCC3)c2s1` [GNE-493] (top concentration 46.0829 µM) the “area under the dose-response curve” value [1] was 384, the “area under the dose-response curve” value [2] was 319 and the viability [3] was 43.9%. The viability [4] was 32.3%.

For `O=C1c2ccccc2-c2n[nH]c3cccc1c23` (top concentration 46.0829 µM), the “area under the dose-response curve” value [1] was 536, the “area under the dose-response curve” value [2] was 448 and the viability [3] was 93%. It also gave a viability [4] of 68.6%.

In the case of `Oc1ccc(/C=C/c2cc(O)cc(O)c2)cc1` [Resveratrol] (top concentration 46.0829 µM), the “area under the dose-response curve” value [1] is reported as 583, the “area under the dose-response curve” value [2] is reported as 544 and the viability [3] is reported as 101%. For the same compound, the viability [4] was 81.7%.

In the case of `CC(C)[C@H](O)C(=O)N[C@@H](C)C(=O)N[C@@H]1C(=O)N(C)CCc2ccccc21` [Semagacestat] (top concentration 46.0829 µM), the “area under the dose-response curve” value [1] is reported as 518, the “area under the dose-response curve” value [2] is reported as 545 and the viability [3] is reported as 90.2%. The viability [4] was 79.5%.

`CCCCCCCCCC(=O)N[C@@H](Cc1c[nH]c2ccccc12)C(=O)N[C@H](CC(N)=O)C(=O)N[C@@H](CC(=O)O)C(=O)N[C@@H]1C(=O)NCC(=O)N[C@@H](CCCN)C(=O)N[C@@H](CC(=O)O)C(=O)N[C@H](C)C(=O)N[C@@H](CC(=O)O)C(=O)NCC(=O)N[C@H](CO)C(=O)N[C@@H]([C@@H](C)CC(=O)O)C(=O)N[C@@H](CC(=O)c2ccccc2N)C(=O)O[C@@H]1C` [Daptomycin] (top concentration 46.0829 µM) was tested, and the “area under the dose-response curve” value [1] was 531, the “area under the dose-response curve” value [2] was 573 and the viability [3] was 112%. The viability [4] was 119%.

In the case of `COc1nccc(-c2c(-c3ccc(F)cc3)ncn2C2CCC(O)CC2)n1` (stereo not drawn) (top concentration 46.0829 µM), the “area under the dose-response curve” value [1] is reported as 538, the “area under the dose-response curve” value [2] is reported as 558 and the viability [3] is reported as 101%. For the same compound, the viability [4] was 120%.

With `CN(C)c1ccc2cc(C(=O)N[C@@H](CCCNC(=N)CCl)C(=O)NCc3ccccc3)ccc2c1` [YW3-56] (top concentration 46.0829 µM) the “area under the dose-response curve” value [1] was 459, the “area under the dose-response curve” value [2] was 507 and the viability [3] was 19.8%. For the same compound, the viability [4] was 2.58%.

`Cc1ccccc1C(=O)Nc1ccc(C(=O)N2CCCC(O)c3cc(Cl)ccc32)c(C)c1` (stereo not drawn) [Tolvaptan] (top concentration 46.0829 µM) was tested, and the “area under the dose-response curve” value [1] was 533, the “area under the dose-response curve” value [2] was 497 and the viability [3] was 94.1%. The viability [4] was 14%.

In the case of `C=C[C@H]1CN2CCC1C[C@H]2[C@H](O)c1ccnc2ccc(OC)cc12` (stereo partly drawn) [Quinine] (top concentration 46.0829 µM), the “area under the dose-response curve” value [1] is reported as 404, the “area under the dose-response curve” value [2] is reported as 520 and the viability [3] is reported as 83.7%. For the same compound, the viability [4] was 88.1%.

With `C[S+](=O)([O-])N1CCN(Cc2cc3nc(-c4cccc5[nH]ncc45)nc(N4CCOCC4)c3s2)CC1` [GDC-0941] (top concentration 46.0829 µM) the “area under the dose-response curve” value [1] was 375, the “area under the dose-response curve” value [2] was 335 and the viability [3] was 48.3%. It also gave a viability [4] of 43.3%.

`N#C/C(=C1/Nc2ccccc2S1)c1ccnc(OCc2ccc(CN3CCOCC3)cc2)n1` (top concentration 46.0829 µM) was tested, and the “area under the dose-response curve” value [1] was 312, the “area under the dose-response curve” value [2] was 267 and the viability [3] was 12.5%. For the same compound, the viability [4] was 5.64%.

For `CC(C)C[C@H](CC(=O)O)C(=O)N[C@@H](Cc1c[nH]c2ccccc12)C(=O)N[C@@H](C)c1ccccc1` [GM-1489] (top concentration 46.0829 µM), the “area under the dose-response curve” value [1] was 525, the “area under the dose-response curve” value [2] was 472 and the viability [3] was 106%. The viability [4] was 57.8%.

With `Cc1c(C(=O)Nc2cccc(C(F)(F)F)c2)cc(-c2ccccc2)n1CCCN1CCOCC1` (top concentration 46.0829 µM) the “area under the dose-response curve” value [1] was 478, the “area under the dose-response curve” value [2] was 516 and the viability [3] was 30.5%. The viability [4] was 3.83%.

In the case of `COc1ccc(C2(C#N)CCC(C(=O)O)CC2)cc1OC1CCCC1` (stereo not drawn) [Cilomilast] (top concentration 46.0829 µM), the “area under the dose-response curve” value [1] is reported as 370, the “area under the dose-response curve” value [2] is reported as 535 and the viability [3] is reported as 30.6%. For the same compound, the viability [4] was 73.8%.

In the case of `OC(=O)C/1=C/C(=O)NC(=O)N1` [Orotic acid] (top concentration 46.0829 µM), the “area under the dose-response curve” value [1] is reported as 608, the “area under the dose-response curve” value [2] is reported as 584 and the viability [3] is reported as 126%. It also gave a viability [4] of 159%.

In the case of `OCCCNc1cc(-c2ccnc(Nc3cccc(Cl)c3)n2)ccn1` (top concentration 46.0829 µM), the “area under the dose-response curve” value [1] is reported as 369, the “area under the dose-response curve” value [2] is reported as 360 and the viability [3] is reported as 38.1%. The viability [4] was 23.2%.

For `CC(N[C@H]1C[C@@H]1c1ccccc1)c1ccc2c(c1)OCCO2` (stereo partly drawn) [LSD1-C76] (top concentration 46.0829 µM), the “area under the dose-response curve” value [1] was 513, the “area under the dose-response curve” value [2] was 606 and the viability [3] was 99.3%. It also gave a viability [4] of 126%.

With `COCCCN1CCC(NC(=O)c2cc(Cl)c(N)c3c2OCC3)CC1` [Prucalopride] (top concentration 46.0829 µM) the “area under the dose-response curve” value [1] was 480, the “area under the dose-response curve” value [2] was 517 and the viability [3] was 17.8%. For the same compound, the viability [4] was 29.1%.

In the case of `CN1C(=O)\C(=C/C(=C1/NC2=C(F)C=C(I)C=C2)C(=O)NOCCO)C` [AZD-8330] (top concentration 46.0829 µM), the “area under the dose-response curve” value [1] is reported as 404, the “area under the dose-response curve” value [2] is reported as 374 and the viability [3] is reported as 62.7%. For the same compound, the viability [4] was 46.3%.

`CO[C@H]1C[C@@H]2CC[C@@H](C)[C@@](O)(O2)C(=O)C(=O)N2CCCC[C@H]2C(=O)O[C@H]([C@H](C)C[C@@H]2CC[C@@H](OP(C)(C)=O)[C@H](OC)C2)CC(=O)[C@H](C)/C=C(\C)[C@@H](O)[C@@H](OC)C(=O)[C@H](C)C[C@H](C)/C=C/C=C/C=C/1C` [Ridaforolimus] (top concentration 46.0829 µM) was tested, and the “area under the dose-response curve” value [1] was 475, the “area under the dose-response curve” value [2] was 383 and the viability [3] was 70.8%. For the same compound, the viability [4] was 73.6%.

`CCCc1nc2c(C)cc(-c3nc4ccccc4n3C)cc2n1Cc1ccc(-c2ccccc2C(=O)O)cc1` [Telmisartan] (top concentration 46.0829 µM) was tested, and the “area under the dose-response curve” value [1] was 481, the “area under the dose-response curve” value [2] was 545 and the viability [3] was 80.6%. The viability [4] was 99.9%.

With `O=C(O)CCCc1ccc(N(CCCl)CCCl)cc1` [Chlorambucil] (top concentration 46.0829 µM) the “area under the dose-response curve” value [1] was 510, the “area under the dose-response curve” value [2] was 441 and the viability [3] was 79.2%. The viability [4] was 42%.
